In PubChem BioAssay AID248 (DTP/NCI, 2004):
Toxic doses and inconclusive results are not listed. No stated cut-off is given here; in the data, active means T/C of 150% or more; inactive means T/C below 125%.

System: L1210 leukemia ip in BDF1 mice, survival T/C
Assay: NCI In Vivo Anticancer Drug Screen. Data for tumor model L1210 Leukemia (intraperitoneal) in B6D2F1 (BDF1) mice
Details: endpoint: mean survival time, higher = longer survival
Summary of the method: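 Survival endpoint. Drug-treated group vs vehicle group, expressed as T divided by C. Tumor passaged by transplantation.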

[1] = dose: 100.0 mg/kg/injection, schedule: Q01DX001 (ip), vehicle: other
[2] = dose: 200.0 mg/kg/injection, schedule: Q01DX001 (ip), vehicle: other
[3] = dose: 400.0 mg/kg/injection, schedule: Q01DX001 (ip), vehicle: other
[4] = dose: 100.0 mg/kg/injection, schedule: Q01DX009 (ip), vehicle: Klucel (hydroxypropylcellulose) (HPC)
[5] = dose: 100.0 mg/kg/injection, schedule: Q04DX003 (ip), vehicle: Klucel (hydroxypropylcellulose) (HPC)
[6] = dose: 200.0 mg/kg/injection, schedule: Q01DX009 (ip), vehicle: Klucel (hydroxypropylcellulose) (HPC)
[7] = dose: 200.0 mg/kg/injection, schedule: Q04DX003 (ip), vehicle: Klucel (hydroxypropylcellulose) (HPC)
[8] = dose: 400.0 mg/kg/injection, schedule: Q01DX009 (ip), vehicle: Klucel (hydroxypropylcellulose) (HPC)
[9] = dose: 400.0 mg/kg/injection, schedule: Q04DX003 (ip), vehicle: Klucel (hydroxypropylcellulose) (HPC)
[10] = dose: 100.0 mg/kg/injection, schedule: Q01DX001 (ip), vehicle: saline
[11] = dose: 200.0 mg/kg/injection, schedule: Q01DX001 (ip), vehicle: saline
[12] = dose: 100.0 mg/kg/injection, schedule: Q04DX003 (ip), vehicle: saline with Tween-80
[13] = dose: 200.0 mg/kg/injection, schedule: Q04DX003 (ip), vehicle: saline with Tween-80
[14] = dose: 400.0 mg/kg/injection, schedule: Q04DX003 (ip), vehicle: saline with Tween-80
[15] = dose: 100.0 mg/kg/injection, schedule: Q04DX002 (ip), vehicle: Klucel (hydroxypropylcellulose) (HPC)
[16] = dose: 200.0 mg/kg/injection, schedule: Q04DX002 (ip), vehicle: Klucel (hydroxypropylcellulose) (HPC)
[17] = dose: 400.0 mg/kg/injection, schedule: Q04DX002 (ip), vehicle: Klucel (hydroxypropylcellulose) (HPC)
[18] = dose: 400.0 mg/kg/injection, schedule: Q01DX001 (ip), vehicle: saline

Measured: T/C

O=S(=O)(Cc1ccccc1)C(Br)c1ccccc1 (centres undefined)
inactive: [1] 101 % of control | dose: 100.0 mg/kg/injection, schedule: Q04DX003 (ip), vehicle: saline 108 % of control | [2] 96 % of control | dose: 200.0 mg/kg/injection, schedule: Q04DX003 (ip), vehicle: saline 97 % of control | [3] 98 % of control | dose: 400.0 mg/kg/injection, schedule: Q04DX003 (ip), vehicle: saline 87 % of control

Nc1ccc2c(c1)S(=O)(=O)c1cc(O)ccc1O2
inactive: [4] 98 % of control | [5] 102 % of control | [6] 95 % of control | [7] 97 % of control | [8] 96 % of control | [9] 102 % of control

CC(C)CNC(=O)Nc1ccccc1
inactive: dose: 75.0 mg/kg/injection, schedule: Q01DX001 (ip), vehicle: saline 97 % of control | dose: 150.0 mg/kg/injection, schedule: Q01DX001 (ip), vehicle: saline 95 % of control

CCCCCCC(C)OB(OC(C)CCCCCC)OC(C)CCCCCC (centres undefined)
inactive: [5] 103 % of control | [7] 95 % of control | [9] 93 % of control

C[n+]1cccc2c(C(=O)O)cccc21
inactive: [10] 97 % of control | [11] 96 % of control

Cc1ccc(N(N)c2ccc(C)cc2)cc1
inactive: [4] 98 % of control | [5] 100 % of control | [6] 98 % of control | [7] 97 % of control | [9] 100 % of control

COC(=O)C(F)C(Br)C(=O)OC (centres undefined)
inactive: dose: 3.12 mg/kg/injection, schedule: Q01DX009 (ip), vehicle: saline with Tween-80 114 % of control | dose: 6.25 mg/kg/injection, schedule: Q01DX009 (ip), vehicle: saline with Tween-80 101 % of control | dose: 12.5 mg/kg/injection, schedule: Q01DX009 (ip), vehicle: saline with Tween-80 103 % of control | dose: 25.0 mg/kg/injection, schedule: Q01DX009 (ip), vehicle: saline with Tween-80 97 % of control | dose: 50.0 mg/kg/injection, schedule: Q01DX009 (ip), vehicle: saline with Tween-80 101 % of control

O=c1ccc2ccccc2n1Cc1ccc2ccccc2n1
inactive: dose: 12.5 mg/kg/injection, schedule: Q01DX001 (ip), vehicle: acetone 100 % of control | dose: 12.5 mg/kg/injection, schedule: Q04DX003 (ip), vehicle: saline 96 % of control | dose: 25.0 mg/kg/injection, schedule: Q01DX001 (ip), vehicle: acetone 92 % of control | dose: 25.0 mg/kg/injection, schedule: Q04DX003 (ip), vehicle: saline 91 % of control | dose: 50.0 mg/kg/injection, schedule: Q01DX001 (ip), vehicle: acetone 95 % of control | dose: 50.0 mg/kg/injection, schedule: Q04DX003 (ip), vehicle: saline 96 % of control | dose: 75.0 mg/kg/injection, schedule: Q04DX003 (ip), vehicle: saline 95 % of control | [1] 97 % of control | dose: 100.0 mg/kg/injection, schedule: Q01DX009 (ip), vehicle: saline with Tween-80 104 % of control | dose: 100.0 mg/kg/injection, schedule: Q04DX003 (ip), vehicle: other 109 % of control | dose: 115.0 mg/kg/injection, schedule: Q04DX003 (ip), vehicle: saline 90 % of control | [2] 100 % of control | dose: 200.0 mg/kg/injection, schedule: Q01DX009 (ip), vehicle: saline with Tween-80 95 % of control | dose: 200.0 mg/kg/injection, schedule: Q04DX003 (ip), vehicle: other 104 % of control | [3] 94 % of control | dose: 400.0 mg/kg/injection, schedule: Q01DX009 (ip), vehicle: saline with Tween-80 101 % of control | dose: 400.0 mg/kg/injection, schedule: Q04DX003 (ip), vehicle: other 104 % of control

CC(/C=C\c1cccc([N+](=O)[O-])c1)=N\NC(=O)c1ccncc1
inactive: [12] 93 % of control | [13] 101 % of control | [14] 96 % of control

CC(=O)n1c(O)c(N=Nc2ccc([N+](=O)[O-])cc2[N+](=O)[O-])c2cc(Br)ccc21
inactive: [15] 92 % of control | [16] 92 % of control | [17] 92 % of control

CCC(=O)OCNC(=O)NNC(=O)CCCC(=O)NNC(=O)NCOC(=O)CC
inactive: dose: 50.0 mg/kg/injection, schedule: Q01DX001 (ip), vehicle: saline 102 % of control | [10] 102 % of control | [11] 106 % of control | [18] 100 % of control

Cc1nc(N)[nH]c(=O)c1CCCNC(=O)c1cccc(CBr)c1
inactive: dose: 50.0 mg/kg/injection, schedule: Q01DX001 (ip), vehicle: Klucel (hydroxypropylcellulose) (HPC) 101 % of control | dose: 100.0 mg/kg/injection, schedule: Q01DX001 (ip), vehicle: Klucel (hydroxypropylcellulose) (HPC) 100 % of control | [16] 102 % of control

CCCCC(=O)N/N=C/c1ccc(Br)cc1
inactive: [10] 100 % of control | [11] 97 % of control | [18] 102 % of control

O=C(O)C1CC(c2ccccc2)C(=O)O1 (centres undefined)
inactive: [15] 100 % of control | [16] 100 % of control | [17] 96 % of control

O=C(COc1ccccc1Cl)NCc1ccc(Cl)cc1
inactive: [4] 92 % of control | [5] 93 % of control | [6] 88 % of control | [7] 95 % of control | [8] 103 % of control | [9] 93 % of control

CCCCCC(C)O[Si](C)Cc1ccccc1 (centres undefined)
inactive: [12] 95 % of control | [13] 97 % of control | [14] 90 % of control

COc1ccc(C(C)=O)cc1CCCOC(C)=O
inactive: dose: 100.0 mg/kg/injection, schedule: Q01DX001 (ip), vehicle: carboxymethylcellulose (CMC) 95 % of control | dose: 200.0 mg/kg/injection, schedule: Q01DX001 (ip), vehicle: carboxymethylcellulose (CMC) 106 % of control | dose: 400.0 mg/kg/injection, schedule: Q01DX001 (ip), vehicle: carboxymethylcellulose (CMC) 101 % of control

COc1cccc(C(=O)C(CCC#N)c2ccccc2)c1 (centres undefined)
inactive: [4] 98 % of control | [5] 106 % of control | [6] 98 % of control | [7] 100 % of control | [8] 96 % of control | [9] 95 % of control

Cc1ccc(S(=O)(=O)Nc2ccccc2-c2nc3ccc(C)cc3c(=O)o2)cc1
inactive: [12] 88 % of control | [13] 94 % of control | [14] 116 % of control

CCCCCCCSCCSCCSCCCCCCC
inactive: [5] 101 % of control | [7] 95 % of control | [9] 95 % of control
